Results on nine compounds are retold here after patent publication US7728012B2, “Carboxamide compounds and their use as calpain inhibitors” (Abbott GmbH & Co. KG, priority 2006, dated 2010).

Type in all cases: biochemical
Experiment [1] has as its target T1, recombinant human cathepsin S (Homo sapiens, UniProt P25774).
T1 construct: purchased Calbiochem 219343; host or cells: E. coli
Put plainly: Cathepsin S kinetic fluorescence enzyme inhibition assay. Conditions: selectivity ratio versus calpain I. An outline of the steps: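 Inhibition is measured at room temperature in cysteine-containing MES buffer, pH 6.0, by continuous fluorescence at 460 nm. Cathepsin S (0.5 nM) uses 20 μM Z-Val-Val-Arg-AMC; L (1 nM) and B (0.25 nM) use Z-Phe-Arg-AMC at 2 and 100 μM respectively.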

Experiment [2] concerns the target T2, calpain-I isolated from human erythrocytes (Homo sapiens, UniProt P07384).
T2 construct: calpain-I—isolated from human erythrocytes; purchased Calbiochem 208713; host or cells: human erythrocytes (tissue isolate)
T2 sequence (P07384 1-714): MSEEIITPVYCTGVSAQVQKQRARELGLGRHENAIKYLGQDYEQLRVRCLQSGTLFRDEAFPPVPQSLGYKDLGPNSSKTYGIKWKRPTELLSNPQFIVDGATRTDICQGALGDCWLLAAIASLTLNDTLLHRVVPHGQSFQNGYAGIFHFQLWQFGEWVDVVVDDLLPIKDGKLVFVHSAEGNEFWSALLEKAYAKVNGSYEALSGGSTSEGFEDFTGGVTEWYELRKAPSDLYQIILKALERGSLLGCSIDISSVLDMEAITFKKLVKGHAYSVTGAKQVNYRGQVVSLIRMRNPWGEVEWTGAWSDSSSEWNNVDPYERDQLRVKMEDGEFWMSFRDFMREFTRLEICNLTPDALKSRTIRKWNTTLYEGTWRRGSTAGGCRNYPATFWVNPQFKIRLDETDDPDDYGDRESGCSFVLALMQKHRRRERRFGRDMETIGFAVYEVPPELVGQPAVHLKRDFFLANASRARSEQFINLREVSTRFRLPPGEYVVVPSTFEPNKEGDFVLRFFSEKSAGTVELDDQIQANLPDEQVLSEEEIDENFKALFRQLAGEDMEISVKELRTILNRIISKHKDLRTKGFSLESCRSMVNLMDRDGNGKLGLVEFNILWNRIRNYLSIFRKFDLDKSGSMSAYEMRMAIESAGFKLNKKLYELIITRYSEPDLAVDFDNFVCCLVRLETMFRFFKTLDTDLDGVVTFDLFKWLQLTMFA
T2 sequence (P04632 1-268 partner): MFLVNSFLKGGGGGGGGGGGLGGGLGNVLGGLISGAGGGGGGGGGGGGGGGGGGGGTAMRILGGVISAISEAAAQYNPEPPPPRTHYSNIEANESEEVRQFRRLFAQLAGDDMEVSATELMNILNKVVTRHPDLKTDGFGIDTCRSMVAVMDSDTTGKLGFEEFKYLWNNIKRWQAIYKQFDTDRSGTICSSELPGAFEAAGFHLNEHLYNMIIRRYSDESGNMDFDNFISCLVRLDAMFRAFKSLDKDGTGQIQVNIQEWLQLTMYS
Put plainly: Calpain I kinetic fluorescence enzyme inhibition assay. To be noted: apparent Ki from IC50 by Cheng-Prussoff; average of 2 to 4 dose-effect plots.

The target of experiment [3] is T3, cathepsin B isolated from human liver (Homo sapiens, UniProt P07858).
T3 construct: cathepsin B—isolated from human liver; purchased Calbiochem 219362; host or cells: human liver (tissue isolate)
Put plainly: Cathepsin B kinetic fluorescence enzyme inhibition assay. Conditions: selectivity ratio versus calpain I. The procedure: (§1) The following solutions and buffers were employed: • HBS (for 40 ml): 800 μl M HEPES; 2.16 ml 100 mM KCl; 4.8 ml 1M NaCl; 3.59 ml 5% glucose; 60 μl μM MgSO4; 400 μl 100 mM Na pyruvate, 28.19 ml water; pH 7.2-7.5. • lysis buffer (for 20 ml): 400 μl M Tris pH 8.2; 2.74 ml 1M NaCl; 520 μl 0.5M EDTA; 2 ml 10% triton X-100; 0.8 ml (=1:25) CompletePlus (1 tablet/2 ml H2O); 200 μl 100 mM Pefabloc; 13.34 ml water, pH 8.2. • TBST (10×) (for 1 l): 100 mM Tris (12.1 g); 1.5M NaCl (87 g); 1% Tween 20 (10 g), adjusted to pH 8. I Enzyme Inhibition In Vitro: • Testing for blockade of the corresponding enzymic activities was carried out by means of kinetic fluorescence assays (excitation 390 nm, emission 460 nm). • Apparent Ki values were calculated from the experimentally determined IC50 values by the Cheng-Prussoff relation assuming a reversible competitive enzyme inhibition. The Km values of the substrates used under the assay conditions indicated above were: 90 μM (Z-Phe-Arg-AMC, cathepsin B), 10 μM (Z-Gly-Pro-Arg-AMC, cathepsin K), 2 μM (Z-Phe-Arg-AMC, cathepsin L), and 30 μM (Z-Val-Val-Arg-AMC, cathepsin S). • The indicated Ki values are averages of the inhibition constants calculated on the basis of 2 to 4 independent dose-effect plots.
(§2) The following assays were used: • 1. Calpain I: • 20 nM calpain-I—isolated from human erythrocytes (Calbiochem #208713), 100 μM Suc-Leu-Tyr-AMC (Bachem #1-1355) as substrate in buffer with 62 mM imidazole, 0.3 mM CaCl2, 0.10% CHAPS, 0.05% BSA, 1 mM DTT at pH 7.3 and room temperature. • 2. Cathepsin B: • 0.25 nM cathepsin B—isolated from human liver (Calbiochem #219362), 100 μM Z-Phe-Arg-AMC (Bachem #I-1160) as substrate 50 mM MES, 2 mM EDTA, 0.05% Brij 35, 2.5 mM L-cysteine, pH 6.0, room temperature. • 3. Cathepsin K: • 3 nM cathepsin K—activated from recombinant human procathepsin K from E. coli (Calbiochem #342001), 10 μM Z-Gly-Pro-Arg-AMC (Biomol #P-142) as substrate in 50 mM MES, 2 mM EDTA, 0.05% Brij 35, 2.5 mM L-cysteine, pH 6.0, room temperature. • 4. Cathepsin L: • 1 nM cathepsin L—isolated from human liver (Calbiochem #219402), 2 μM Z-Phe-Arg-AMC (Bachem #1-1160) as substrate in 50 mM MES, 2 mM EDTA, 0.05% Brij 35, 2.5 mM L-cysteine, pH 6.0, room temperature. • 5. Cathepsin S: • 0.5 nM recombinant human cathepsin S from E. coli (Calbiochem #219343), 20 μM Z-Val-Val-Arg-AMC (Bachem #1-1540) as substrate in 50 mM MES, 2 mM EDTA, 0.05% Brij 35, 2.5 mM L-cysteine, pH 6.0, room temperature. • The results of the in vitro determination are indicated in Table 1. The following abbreviations are used in Table 1: • The “Calpain activity” column, ++ stands for a calpain Ki (Ki(calpain)) of ≦40 nM and + means: 40 nM<Ki(Calpain)≦100 nM. • The “Sel. cat. B” column indicates the Ki(cathepsin B)/Ki(calpain) ratio. In this connection, ++ means a Ki(cathepsin B)/Ki(calpain) ratio of ≧30 and + means 10≦Ki(cathepsin B)/Ki(calpain)<30. • The “Sel. cat. K” column indicates the Ki(cathepsin K)/Ki(calpain) ratio. In this connection, ++ means a Ki(cathepsin K)/Ki(calpain) ratio of ≧30 and + means 10≦Ki(cathepsin K)/Ki(calpain)<30. • The “Sel. cat. L” column indicates the Ki(cathepsin L)/Ki(calpain) ratio. In this connection, ++ means a Ki(cathepsin L)/Ki(calpain) ratio of ≧50 and + means 30≦Ki(cathepsin L)/Ki(calpain)<50. • The “Sel. cat. S” column indicates the Ki(cathepsin S)/Ki(calpain) ratio. In this connection, ++ means a Ki(cathepsin S)/Ki(calpain) ratio of ≧100 and + means 50≦Ki(cathepsin S)/Ki(calpain)<100.

Experiment [4] concerns the target T4, cathepsin L isolated from human liver (Homo sapiens, UniProt P07711).
T4 construct: cathepsin L—isolated from human liver; purchased Calbiochem 219402; host or cells: human liver (tissue isolate)
Put plainly: Cathepsin L kinetic fluorescence enzyme inhibition assay. To be noted: selectivity ratio versus calpain I. The procedure:
as §1, §2

T4 sequence (P07711 114-333): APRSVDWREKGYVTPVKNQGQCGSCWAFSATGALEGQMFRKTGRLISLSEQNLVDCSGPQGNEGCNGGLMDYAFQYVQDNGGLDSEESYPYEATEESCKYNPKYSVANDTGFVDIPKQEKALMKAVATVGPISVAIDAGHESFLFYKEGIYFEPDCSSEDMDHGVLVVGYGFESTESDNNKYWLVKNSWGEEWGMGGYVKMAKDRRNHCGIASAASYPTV
T1 sequence (P25774 115-331): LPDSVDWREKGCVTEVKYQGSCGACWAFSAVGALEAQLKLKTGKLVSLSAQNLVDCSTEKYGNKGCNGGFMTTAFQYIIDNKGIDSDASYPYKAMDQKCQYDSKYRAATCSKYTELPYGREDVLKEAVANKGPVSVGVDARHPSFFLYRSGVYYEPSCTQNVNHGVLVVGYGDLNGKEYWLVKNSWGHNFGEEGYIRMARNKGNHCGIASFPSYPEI

`CCCCC(NC(=O)c1cccnc1-n1ccc(-c2ccc(N3CCOCC3)cc2)n1)C(=O)C(N)=O` (stereo not drawn) [Example 33, N-{1-[Amino(oxo)acetyl]pentyl}-2-[3-(4-morpholin-4-ylphenyl)-1H-pyrazol-1-yl]nicotinamide]: in experiment [1], the “Sel cat. S (Ki(cathepsin S)/Ki(calpain) ratio)” value is given as “+ (50≦Ki(cathepsin S)/Ki(calpain)<100)”. In addition, the Ki in experiment [2] is not above 40 nM. For the same compound, the “Sel cat. B (Ki(cathepsin B)/Ki(calpain) ratio)” value in experiment [3] is reported as “+ (10≦Ki(cathepsin B)/Ki(calpain)<30)”.

`NC(=O)C(=O)C(Cc1cccs1)NC(=O)c1cccnc1-n1ccc(-c2ccccc2)n1` (stereo not drawn) [Example 40, N-[3-Amino-2,3-dioxo-1-(2-thienylmethyl)propyl]-2-(3-phenyl-1H-pyrazol-1-yl)pyridine-3-carboxamide]: the “Sel cat. S (Ki(cathepsin S)/Ki(calpain) ratio)” value in experiment [1] is recorded as “++ (Ki(cathepsin S)/Ki(calpain) ratio of ≧100)”. In experiment [2], the Ki is not above 40 nM. In experiment [4], the “Sel cat. L (Ki(cathepsin L)/Ki(calpain) ratio)” value is “++ (Ki(cathepsin L)/Ki(calpain) ratio of ≧50)”. The “Sel cat. B (Ki(cathepsin B)/Ki(calpain) ratio)” value in experiment [3] is reported as “+ (10≦Ki(cathepsin B)/Ki(calpain)<30)”.

As for `Cc1cc(-c2ccccc2)nn1-c1ncccc1C(=O)NC(Cc1ccccc1)C(=O)C(N)=O` (stereo not drawn) [Example 61, N-(3-Amino-1-benzyl-2,3-dioxopropyl)-2-(5-methyl-3-phenyl-1H-pyrazol-1-yl)nicotinamide], in experiment [1], the “Sel cat. S (Ki(cathepsin S)/Ki(calpain) ratio)” value is on record as “++ (Ki(cathepsin S)/Ki(calpain) ratio of ≧100)”. Besides, the “Sel cat. B (Ki(cathepsin B)/Ki(calpain) ratio)” value in experiment [3] is listed as “+ (10≦Ki(cathepsin B)/Ki(calpain)<30)”.

Consider `NC(=O)C(=O)C(Cc1ccccc1)NC(=O)c1cccnc1-n1ccc(-c2ccc(N3CCCCC3)cc2)n1` (stereo not drawn) [Example 64, N-(3-Amino-1-benzyl-2,3-dioxopropyl)-2-[3-(4-piperidin-1-ylphenyl)-1H-pyrazol-1-yl]nicotinamide], for which the “Sel cat. S (Ki(cathepsin S)/Ki(calpain) ratio)” value in experiment [1] was “++ (Ki(cathepsin S)/Ki(calpain) ratio of ≧100)”. Besides, the Ki in experiment [2] is not above 40 nM. Further, the “Sel cat. B (Ki(cathepsin B)/Ki(calpain) ratio)” value in experiment [3] was “+ (10≦Ki(cathepsin B)/Ki(calpain)<30)”.

In the case of `Cc1cn(-c2ncccc2C(=O)NC(Cc2ccccc2)C(=O)C(N)=O)nc1-c1ccccc1` (stereo not drawn) [Example 84, N-(3-Amino-1-benzyl-2,3-dioxopropyl)-2-(4-methyl-3-phenyl-1H-pyrazol-1-yl)nicotinamide], the “Sel cat. S (Ki(cathepsin S)/Ki(calpain) ratio)” value in experiment [1] is “++ (Ki(cathepsin S)/Ki(calpain) ratio of ≧100)”. Further, the Ki in experiment [2] was not above 40 nM. The “Sel cat. L (Ki(cathepsin L)/Ki(calpain) ratio)” value in experiment [4] was “++ (Ki(cathepsin L)/Ki(calpain) ratio of ≧50)”. Further, in experiment [3], the “Sel cat. B (Ki(cathepsin B)/Ki(calpain) ratio)” value is on record as “+ (10≦Ki(cathepsin B)/Ki(calpain)<30)”.

Take `NC(=O)C(=O)C(Cc1ccc(Br)cc1)NC(=O)c1cccnc1-n1ccc(-c2ccccc2)n1` (stereo not drawn) [Example 122, N-{3-Amino-1-[(4-bromophenyl)methyl]-2,3-dioxopropyl}-2-(3-phenyl-1H-pyrazol-1-yl)pyridine-3-carboxamide]: the “Sel cat. S (Ki(cathepsin S)/Ki(calpain) ratio)” value in experiment [1] is “++ (Ki(cathepsin S)/Ki(calpain) ratio of ≧100)”. Also, the Ki in experiment [2] is not above 40 nM. The “Sel cat. L (Ki(cathepsin L)/Ki(calpain) ratio)” value in experiment [4] was “++ (Ki(cathepsin L)/Ki(calpain) ratio of ≧50)”. Besides, the “Sel cat. B (Ki(cathepsin B)/Ki(calpain) ratio)” value in experiment [3] was “++ (Ki(cathepsin B)/Ki(calpain) ratio of ≧30)”.

With `CC(C)c1ccc2c(c1)-c1nn(-c3ncccc3C(=O)NC(Cc3ccccc3)C(=O)C(N)=O)cc1CO2` (stereo not drawn) [Example 144, N-[3-Amino-2,3-dioxo-1-(phenylmethyl)propyl]-2-[8-(1-methylethyl)chromeno[4,3-c]pyrazol-2(4H)-yl]pyridine-3-carboxamide], the “Sel cat. S (Ki(cathepsin S)/Ki(calpain) ratio)” value in experiment [1] is “++ (Ki(cathepsin S)/Ki(calpain) ratio of ≧100)”. For the same compound, the Ki in experiment [2] is not above 40 nM. In experiment [4], the “Sel cat. L (Ki(cathepsin L)/Ki(calpain) ratio)” value is “++ (Ki(cathepsin L)/Ki(calpain) ratio of ≧50)”. Moreover, in experiment [3], the “Sel cat. B (Ki(cathepsin B)/Ki(calpain) ratio)” value is on record as “+ (10≦Ki(cathepsin B)/Ki(calpain)<30)”.

`NC(=O)C(=O)C(Cc1ccccc1)NC(=O)c1cccnc1-n1ccc(-c2cccc3cnccc23)n1` (stereo not drawn) [Example 156, N-[3-Amino-2,3-dioxo-1-(phenylmethyl)propyl]-2-(3-isoquinolin-5-yl-1H-pyrazol-1-yl)pyridine-3-carboxamide]: the “Sel cat. S (Ki(cathepsin S)/Ki(calpain) ratio)” value in experiment [1] was “++ (Ki(cathepsin S)/Ki(calpain) ratio of ≧100)”. Further, the “Sel cat. L (Ki(cathepsin L)/Ki(calpain) ratio)” value in experiment [4] was “+ (30≦Ki(cathepsin L)/Ki(calpain)<50)”. Moreover, in experiment [3], the “Sel cat. B (Ki(cathepsin B)/Ki(calpain) ratio)” value is on record as “+ (10≦Ki(cathepsin B)/Ki(calpain)<30)”.

For “N-{3-Amino-1-[(4-fluorophenyl)methyl]-2,3-dioxopropyl}-2-[3-(2,3-dichlorophenyl)-1H-pyrazol-1-yl]pyridine-3-carboxamide [Example 161]”, in experiment [1], the “Sel cat. S (Ki(cathepsin S)/Ki(calpain) ratio)” value was “++ (Ki(cathepsin S)/Ki(calpain) ratio of ≧100)”. The “Sel cat. L (Ki(cathepsin L)/Ki(calpain) ratio)” value in experiment [4] is given as “+ (30≦Ki(cathepsin L)/Ki(calpain)<50)”. The “Sel cat. B (Ki(cathepsin B)/Ki(calpain) ratio)” value in experiment [3] is on record as “+ (10≦Ki(cathepsin B)/Ki(calpain)<30)”.
